Measured values from patent US5086176A, “Tricyclic fused adenine derivatives” (priority 1991, dated 1992).
Where two headings read alike, the source gives them in different places.

Legend:
[1] = tested on: A-2 receptors; settings: rank order; cited from earlier work
[2] = biological target: T1, Adenosine A-1 receptor (Rattus norvegicus, UniProt P25099); assay: Test for affinity for brain adenosine A-1 receptor binding sites ([3H]cyclohexyladenosine displacement); settings: ratio of A-2 Ki to A-1 Ki
T1 sequence (P25099 1-326): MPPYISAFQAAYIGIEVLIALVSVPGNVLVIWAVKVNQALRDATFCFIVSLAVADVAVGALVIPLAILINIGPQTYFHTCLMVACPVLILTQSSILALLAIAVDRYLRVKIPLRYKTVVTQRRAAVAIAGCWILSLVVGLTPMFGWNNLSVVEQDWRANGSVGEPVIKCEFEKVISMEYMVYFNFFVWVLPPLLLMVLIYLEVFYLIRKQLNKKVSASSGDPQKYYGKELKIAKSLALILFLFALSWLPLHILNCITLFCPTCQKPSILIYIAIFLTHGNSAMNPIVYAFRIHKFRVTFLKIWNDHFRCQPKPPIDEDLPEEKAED

[3] = biological target: T1, Adenosine A-1 receptor
[4] = tested on: A-1 receptors; settings: cited from earlier work
[5] = tested on: effects of adenosine analogs on heart rate and blood pressure; settings: heart rate compared with blood pressure; cited from earlier work

For Nc1nc(Cl)nc2c1ncn2[C@@H]1O[C@H](CO)[C@@H](O)[C@H]1O [2-chloroadenosine], the “order of potency at A-2 receptors” value [1] is listed as “NECA>2-chloroadenosine>R-PIA>CHA”.

With C1=Nc2c(cnn2-c2ccccc2)C2=N[C@H](Cc3ccccc3)CN12 [Compound 3, (R)-2,7-dihydro-7-phenyl-2-(phenylmethyl)-3H-imidazo-[1,2-c]pyrazolo-[4,3-e]pyrimidine] the “A-2 Ki/A-1 Ki” value [2] was 13.20.

For C1=Nc2c(ncn2-c2ccccc2)C2=N[C@H](Cc3ccccc3)CN12 [Compound 6, (R)-7,8-dihydro-3-phenyl-8-(phenylmethyl)-3H-diimidazo[1,2-c: 4',5'-e]pyrimidine], the “A-2 Ki/A-1 Ki” value [3] was 16.40.

With CCCOC1=Nc2c(cnn2-c2ccccc2)C2=N[C@H](C)[C@@H](c3ccccc3)N12 [Compound 7, (2R-trans)-2,7-dihydro-2-methyl-3,7-diphenyl-5-propoxy-3H-Imidazo-[1,2-c]pyrazolo[4,3-s]pyrimidine] the “A-2 Ki/A-1 Ki” value [2] was 1.17.

In the case of CCNC(=O)[C@H]1O[C@@H](n2cnc3c(N)ncnc32)[C@H](O)[C@@H]1O [NECA, N-5'-ethylcarboxamidoadenosine], the “order of potency at A-2 receptors” value [1] is given as “NECA>2-chloroadenosine>R-PIA>CHA”.

For CCCn1c(=O)c2[nH]c(-c3ccc(OCC(=O)NCCN)cc3)nc2n(CCC)c1=O [XAC], the “higher affinity for A-1 adenosine receptors” value ([4]; A-1 Ki compared with Ki at A-2 receptors of the brain slice assay) is given as 40 fold and the “antagonizing the effects of adenosine analogs on heart rate versus blood pressure” value [5] is given as “much more potent in antagonizing the effects of adenosine analogs on heart rate than on blood pressure”.

In the case of CCCn1c(=O)c2[nH]c(-c3ccc(OCC(=O)O)cc3)nc2n(CCC)c1=O [XCC], the adenosine receptor selectivity ([4]; A-1 versus A-2, in vitro) is listed as “non-selective”.
